Measurements published in publication PMC10830516 (Current Research in Structural Biology, 2024).
Square brackets hold non-standard residues; d marks the D form. Peptide text beside a SMILES is read from it. * marks the point of attachment. Sta = CC(C)C[C@H](N)[C@@H](O)CC(=O)O; Isovaleryl = CC(C)CC(=O)*

How the values were obtained:
PMII = settings: cited from earlier work
plasmepsin II (PMII) = plasmepsin II (PMII) (Plasmodium falciparum, UniProt P46925); experiment: Inhibition of PMII hydrolysis of Hb-based fluorogenic peptide substrate; type: biochemical, P. falciparum
plasmepsin II (PMII), sequence (P46925 125-453): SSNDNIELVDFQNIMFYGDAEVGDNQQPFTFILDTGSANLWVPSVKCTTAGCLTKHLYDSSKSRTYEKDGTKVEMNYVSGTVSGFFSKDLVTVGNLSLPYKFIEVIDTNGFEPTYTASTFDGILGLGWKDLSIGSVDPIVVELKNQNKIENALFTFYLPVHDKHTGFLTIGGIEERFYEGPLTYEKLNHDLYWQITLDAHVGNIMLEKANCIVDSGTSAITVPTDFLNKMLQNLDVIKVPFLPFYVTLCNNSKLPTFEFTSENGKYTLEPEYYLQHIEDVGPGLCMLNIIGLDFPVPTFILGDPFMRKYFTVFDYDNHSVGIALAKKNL

plasmepsin X (PMX) = plasmepsin X (PMX) (Plasmodium falciparum, UniProt Q8IAS0); experiment: Inhibition of PMX hydrolysis of Rh2N fluorogenic peptide substrate; type: biochemical, P. falciparum; settings: Ki against PMX, mature PMX, pH 5.5, 1 μM Rh2N substrate; Ki by Cheng-Prusoff
plasmepsin X (PMX), sequence (Q8IAS0 235-573): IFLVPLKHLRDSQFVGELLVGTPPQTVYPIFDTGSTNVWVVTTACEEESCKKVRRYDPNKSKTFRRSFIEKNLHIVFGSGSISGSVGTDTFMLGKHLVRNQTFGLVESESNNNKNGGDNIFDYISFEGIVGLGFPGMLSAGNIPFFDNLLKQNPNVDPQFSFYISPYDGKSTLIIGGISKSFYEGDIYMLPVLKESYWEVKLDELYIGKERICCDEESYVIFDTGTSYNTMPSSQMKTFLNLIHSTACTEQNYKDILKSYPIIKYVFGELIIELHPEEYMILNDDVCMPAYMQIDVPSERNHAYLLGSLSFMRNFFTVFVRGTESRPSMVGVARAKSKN

Structure (SMILES) | IC50 (PMII; achiral inhibitors, ref Boss et al., 2006, Prade et al., 2005) | Ki (plasmepsin II (PMII)) | Ki (plasmepsin X (PMX)) | Ki (PMII; PMII complex PDB ID 1XDH, ref Silva et al., 1996)
CCCCCc1ccc(C(=O)N(Cc2ccc(-c3ccc(C(=O)N4CCCCC4)cc3)cc2)C2CCN(Cc3ccccn3)CC2)nc1 [2IGX] | 54 nM |  |  | 
CC(C)(C)NC(=O)[C@@H]1CN(Cc2cccnc2)CCN1C[C@@H](O)C[C@@H](Cc1ccccc1)C(=O)N[C@H]1c2ccccc2C[C@H]1O [IDV, Indinavir] |  | 2400 nM |  | 
Cc1cccc(C)c1OCC(=O)N[C@@H](Cc1ccccc1)[C@@H](O)C[C@H](Cc1ccccc1)NC(=O)[C@H](C(C)C)N1CCCNC1=O [LPV, Lopinavir] |  | 700 nM | 14 µM | 
Cc1c(O)cccc1C(=O)N[C@@H](CSc1ccccc1)[C@H](O)CN1C[C@H]2CCCC[C@H]2C[C@H]1C(=O)NC(C)(C)C [NFV, Nelfinavir] |  | 1400 nM | 60 µM | 
CC(C)(C)NC(=O)[C@@H]1C[C@@H]2CCCC[C@@H]2CN1C[C@@H](O)[C@H](Cc1ccccc1)NC(=O)[C@H](CC(N)=O)NC(=O)c1ccc2ccccc2n1 [SQV, Saquinavir] |  | 1000 nM | 44 µM | 
CC(C)CC(=O)N[C@H](C(=O)N[C@H](C(=O)N[C@@H](CC(C)C)[C@@H](O)CC(=O)N[C@@H](C)C(=O)N[C@@H](CC(C)C)[C@@H](O)CC(=O)O)C(C)C)C(C)C [pepstatin A] (Isovaleryl-VV[Sta]A[Sta]-OH) |  |  |  | 6 pM
